# Values joined by “and” are separate entries in the source; they are usually repeats but may differ in a detail not shown here. Equal entries are not always repeated. Toxic doses and inconclusive results are not listed.
# Tested on: CD2F1 mice, L1210 leukemia ip, survival T/C
# Experiment: NCI In Vivo Anticancer Drug Screen. Data for tumor model L1210 Leukemia (intraperitoneal) in CD2F1 (CDF1) mice
# Details: higher = longer survival
# In short: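 Each value reflects a quotient of treated over vehicle control outcomes in mice with a transplanted tumor.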
# [1] = endpoint: mean survival time, dose: 100.0 mg/kg/injection, schedule: Q04DX003 (ip), vehicle: saline with Tween-80
# [2] = endpoint: mean survival time, dose: 200.0 mg/kg/injection, schedule: Q04DX003 (ip), vehicle: saline with Tween-80
# [3] = endpoint: mean survival time, dose: 100.0 mg/kg/injection, schedule: Q01DX009 (ip), vehicle: saline with Tween-80
# [4] = endpoint: mean survival time, dose: 200.0 mg/kg/injection, schedule: Q01DX009 (ip), vehicle: saline with Tween-80
# [5] = endpoint: mean survival time, dose: 400.0 mg/kg/injection, schedule: Q01DX009 (ip), vehicle: saline with Tween-80
# [6] = endpoint: mean survival time, dose: 50.0 mg/kg/injection, schedule: Q01DX009 (ip), vehicle: saline
# [7] = endpoint: mean survival time, dose: 100.0 mg/kg/injection, schedule: Q01DX009 (ip), vehicle: saline
# [8] = endpoint: mean survival time, dose: 100.0 mg/kg/injection, schedule: Q04DX003 (ip), vehicle: saline
# [9] = endpoint: mean survival time, dose: 200.0 mg/kg/injection, schedule: Q01DX009 (ip), vehicle: saline
# [10] = endpoint: mean survival time, dose: 200.0 mg/kg/injection, schedule: Q04DX003 (ip), vehicle: saline
# [11] = endpoint: mean survival time, dose: 400.0 mg/kg/injection, schedule: Q04DX003 (ip), vehicle: saline with Tween-80
# [12] = endpoint: mean survival time, dose: 25.0 mg/kg/injection, schedule: Q04DX003 (ip), vehicle: saline with Tween-80
# [13] = endpoint: mean survival time, dose: 50.0 mg/kg/injection, schedule: Q04DX003 (ip), vehicle: saline with Tween-80
compound,measurement,setting,value
CN(C)CCN1C(=O)c2cccc3cc([N+](=O)[O-])cc(c23)C1=O,T/C,"endpoint: mean survival time, dose: 0.75 mg/kg/injection, schedule: Q01DX009 (ip), vehicle: saline with Tween-80",100 % of control and 106 % of control
same,T/C,"endpoint: mean survival time, dose: 1.5 mg/kg/injection, schedule: Q01DX009 (ip), vehicle: saline with Tween-80",115 % of control and 107 % of control
same,T/C,"endpoint: mean survival time, dose: 1.5 mg/kg/injection, schedule: Q01DX009 (ip), vehicle: saline",102 % of control
same,T/C,"endpoint: mean survival time, dose: 3.0 mg/kg/injection, schedule: Q01DX009 (ip), vehicle: saline with Tween-80",113 % of control
same,T/C,"endpoint: mean survival time, dose: 3.0 mg/kg/injection, schedule: Q01DX009 (ip), vehicle: saline",107 % of control
same,T/C,"endpoint: mean survival time, dose: 6.0 mg/kg/injection, schedule: Q01DX009 (ip), vehicle: saline",109 % of control
same,T/C,"endpoint: mean survival time, dose: 12.0 mg/kg/injection, schedule: Q01DX009 (ip), vehicle: saline with Tween-80",120 % of control
same,T/C,"endpoint: mean survival time, dose: 12.0 mg/kg/injection, schedule: Q01DX009 (ip), vehicle: saline",117 % of control
same,T/C,"endpoint: median survival time, dose: 0.37 mg/kg/injection, schedule: Q01DX009 (ip), vehicle: saline with Tween-80",100 % of control
same,T/C,"endpoint: median survival time, dose: 0.75 mg/kg/injection, schedule: Q01DX009 (ip), vehicle: saline with Tween-80",95 % of control and 105 % of control
same,T/C,"endpoint: median survival time, dose: 1.5 mg/kg/injection, schedule: Q01DX009 (ip), vehicle: saline with Tween-80",116 % of control and 98 % of control
same,T/C,"endpoint: median survival time, dose: 3.0 mg/kg/injection, schedule: Q01DX009 (ip), vehicle: saline with Tween-80",104 % of control and 110 % of control
same,T/C,"endpoint: median survival time, dose: 6.0 mg/kg/injection, schedule: Q01DX009 (ip), vehicle: saline with Tween-80",122 % of control
same,T/C,"endpoint: median survival time, dose: 12.0 mg/kg/injection, schedule: Q01DX009 (ip), vehicle: saline with Tween-80",122 % of control
COc1cc(C(=O)N(C(C)C)C2CCCCC2)cc(OC)c1OC,T/C,[1],104 % of control
same,T/C,[2],96 % of control
Cc1ccc(S(=O)(=O)OCC(O)C(O)C(O)C(O)C=O)cc1 (centres undefined) (tested in a mixture with another compound),T/C,[3],103 % of control
same,T/C,[4],95 % of control
same,T/C,[5],112 % of control
CCOC(=O)COC(CN)C(Cl)(Cl)Cl (centres undefined),T/C,[1],101 % of control
same,T/C,[2],97 % of control
CCOC(=O)/C(=C/C(C#N)=C/N(C)C)CC,T/C,"endpoint: mean survival time, dose: 100.0 mg/kg/injection, schedule: Q04DX003 (ip), vehicle: saline sonified",93 % of control
same,T/C,"endpoint: mean survival time, dose: 200.0 mg/kg/injection, schedule: Q04DX003 (ip), vehicle: saline sonified",108 % of control
CCOS(=O)(=O)CCCCS(=O)(=O)OCC,T/C,"endpoint: mean survival time, dose: 10.0 mg/kg/injection, schedule: Q01DX009 (ip), vehicle: Klucel (hydroxypropylcellulose) (HPC)",104 % of control
same,T/C,"endpoint: mean survival time, dose: 20.0 mg/kg/injection, schedule: Q01DX009 (ip), vehicle: Klucel (hydroxypropylcellulose) (HPC)",98 % of control
same,T/C,"endpoint: mean survival time, dose: 40.0 mg/kg/injection, schedule: Q01DX009 (ip), vehicle: Klucel (hydroxypropylcellulose) (HPC)",107 % of control
CCc1ccc(C)[nH]c1=S,T/C,"endpoint: mean survival time, dose: 50.0 mg/kg/injection, schedule: Q01DX009 (ip), vehicle: saline with Tween-80",105 % of control
same,T/C,"endpoint: mean survival time, dose: 100.0 mg/kg/injection, schedule: Q01DX001 (ip), vehicle: saline with Tween-80",102 % of control
same,T/C,[3],98 % of control
same,T/C,"endpoint: mean survival time, dose: 200.0 mg/kg/injection, schedule: Q01DX001 (ip), vehicle: saline with Tween-80",102 % of control
same,T/C,[4],98 % of control
NNC(=O)C1CC2CCC1C2 (centres undefined),T/C,[6],107 % of control
same,T/C,[7],109 % of control
same,T/C,[8],97 % of control
same,T/C,[9],105 % of control
same,T/C,[10],114 % of control
COc1cc(/C=C/C(=O)O)ccc1OC(C)=O,T/C,[7],98 % of control
same,T/C,[9],100 % of control
same,T/C,"endpoint: mean survival time, dose: 400.0 mg/kg/injection, schedule: Q01DX009 (ip), vehicle: saline",93 % of control
COc1c(C)ccc([N+](=O)[O-])c1OC,T/C,[3],97 % of control
same,T/C,[4],98 % of control
same,T/C,[5],98 % of control
Cc1cc(-c2nnc(-c3ccc(O)c(C)c3)nn2)ccc1O,T/C,[1],97 % of control
same,T/C,[2],89 % of control
same,T/C,[11],92 % of control
CC(=O)Nc1sc2c(c1C#N)CCCC2,T/C,[1],93 % of control
same,T/C,[2],93 % of control
same,T/C,[11],101 % of control
CC([NH-])C(C)[NH-].[Cl][Pt+2][Cl] (centres undefined),T/C,"endpoint: mean survival time, dose: 1.56 mg/kg/injection, schedule: Q04DX002 (ip), vehicle: Klucel (hydroxypropylcellulose) (HPC)",113 % of control
same,T/C,"endpoint: mean survival time, dose: 3.12 mg/kg/injection, schedule: Q04DX002 (ip), vehicle: Klucel (hydroxypropylcellulose) (HPC)",120 % of control
same,T/C,"endpoint: mean survival time, dose: 12.5 mg/kg/injection, schedule: Q04DX002 (ip), vehicle: Klucel (hydroxypropylcellulose) (HPC)",166 % of control
same,T/C,"endpoint: mean survival time, dose: 25.0 mg/kg/injection, schedule: Q04DX002 (ip), vehicle: Klucel (hydroxypropylcellulose) (HPC)",118 % of control and 120 % of control
same,T/C,"endpoint: mean survival time, dose: 50.0 mg/kg/injection, schedule: Q04DX002 (ip), vehicle: Klucel (hydroxypropylcellulose) (HPC)",89 % of control
ClCCCCOCCCCCl,T/C,[3],95 % of control
same,T/C,[1],97 % of control
same,T/C,[4],95 % of control
same,T/C,[2],95 % of control
same,T/C,[5],117 % of control
same,T/C,[11],97 % of control
Cc1ccc(S(=O)(=O)O)cc1.Cc1ccc(S(=O)(=O)O)cc1.[NH-]C1CCCCC1[NH-].[Pt+2],T/C,"endpoint: mean survival time, dose: 2.0 mg/kg/injection, schedule: Q04DX003 (ip), vehicle: other",177 % of control
same,T/C,"endpoint: mean survival time, dose: 4.0 mg/kg/injection, schedule: Q04DX003 (ip), vehicle: other",255 % of control
same,T/C,"endpoint: mean survival time, dose: 8.0 mg/kg/injection, schedule: Q04DX003 (ip), vehicle: other",183 % of control
COC(=O)C(C)NC(=O)CCNC(=O)OCc1ccccc1 (centres undefined),T/C,[1],93 % of control
same,T/C,[2],93 % of control
same,T/C,[11],90 % of control
O=C1C=CC(=NCl)C=C1,T/C,"endpoint: mean survival time, dose: 2.5 mg/kg/injection, schedule: Q04DX003 (ip), vehicle: saline with Tween-80",100 % of control
same,T/C,"endpoint: mean survival time, dose: 5.0 mg/kg/injection, schedule: Q04DX003 (ip), vehicle: saline with Tween-80",110 % of control
O=C(O)/C=C/C(=O)c1ccccc1,T/C,"endpoint: mean survival time, dose: 12.5 mg/kg/injection, schedule: Q04DX003 (ip), vehicle: saline with Tween-80",104 % of control
same,T/C,[12],98 % of control
Nc1ncnc2nc(-c3ccc(C[P+](c4ccccc4)(c4ccccc4)c4ccccc4)cc3)[nH]c12,T/C,[1],101 % of control
same,T/C,[2],95 % of control
same,T/C,[11],101 % of control
C[N+](C)(C)c1ncnc2c1ncn2C1CCCO1 (centres undefined),T/C,"endpoint: mean survival time, dose: 12.5 mg/kg/injection, schedule: Q01DX009 (ip), vehicle: saline",93 % of control
same,T/C,"endpoint: mean survival time, dose: 25.0 mg/kg/injection, schedule: Q01DX009 (ip), vehicle: saline",98 % of control
same,T/C,[6],112 % of control
same,T/C,[7],101 % of control
CC(=O)NS(=O)(=O)c1ccc([NH-])cc1.CC(=O)NS(=O)(=O)c1ccc([NH-])cc1.[Cl][Pt+2][Cl],T/C,[12],102 % of control
same,T/C,[13],97 % of control
same,T/C,[1],96 % of control
same,T/C,[2],94 % of control
same,T/C,[11],104 % of control
CC1(C(N)=O)OC12CCCCC2 (centres undefined),T/C,[1],95 % of control
same,T/C,[2],97 % of control
same,T/C,[11],97 % of control
NC(=O)c1n[nH]c(C2CC(O)C(CO)O2)n1 (centres undefined),T/C,"endpoint: mean survival time, dose: 12.5 mg/kg/injection, schedule: Q01DX005 (ip), vehicle: water",96 % of control
same,T/C,"endpoint: mean survival time, dose: 25.0 mg/kg/injection, schedule: Q01DX005 (ip), vehicle: water",91 % of control
same,T/C,"endpoint: mean survival time, dose: 50.0 mg/kg/injection, schedule: Q01DX005 (ip), vehicle: water",92 % of control
same,T/C,"endpoint: mean survival time, dose: 100.0 mg/kg/injection, schedule: Q01DX005 (ip), vehicle: water",96 % of control
same,T/C,"endpoint: mean survival time, dose: 200.0 mg/kg/injection, schedule: Q01DX005 (ip), vehicle: water",94 % of control
CCNC(=S)N(Cc1ccccc1)Cc1ccccc1,T/C,[13],103 % of control
same,T/C,[1],89 % of control and 98 % of control
same,T/C,[2],100 % of control
same,T/C,[11],87 % of control
CC(C)(C)OCC(N)C(=O)OC(C)(C)C (centres undefined),T/C,[8],93 % of control
same,T/C,[10],103 % of control
same,T/C,"endpoint: mean survival time, dose: 400.0 mg/kg/injection, schedule: Q04DX003 (ip), vehicle: saline",96 % of control
C1=C(c2ccc(-c3ccccc3)cc2)Nc2ccccc2S1,T/C,"endpoint: mean survival time, dose: 100.0 mg/kg/injection, schedule: Q04DX002 (ip), vehicle: other",107 % of control
same,T/C,"endpoint: mean survival time, dose: 200.0 mg/kg/injection, schedule: Q04DX002 (ip), vehicle: other",107 % of control
O=C(CO)c1ccccc1,T/C,[1],97 % of control
same,T/C,[2],92 % of control
same,T/C,[11],92 % of control
O=Cc1c2ccccc2cc2ccccc12,T/C,"endpoint: mean survival time, dose: 89.0 mg/kg/injection, schedule: Q01DX001 (ip), vehicle: saline",170 % of control
same,T/C,"endpoint: mean survival time, dose: 133.0 mg/kg/injection, schedule: Q01DX001 (ip), vehicle: saline",167 % of control
same,T/C,"endpoint: mean survival time, dose: 200.0 mg/kg/injection, schedule: Q01DX001 (ip), vehicle: saline",162 % of control

# From PubChem BioAssay AID256 (DTP/NCI, 2004)
